In assay [1] the test system is PC12 cells. As to the kind of experiment: Uptake of [125I]NGF into PC12 cells. The note with it: 20 pM or 0.2 nM [125I]NGF; saturating R3. In kind it is cell-based, rat. The method, then:
(§1) PC12 cells were removed from culture dishes with CMF, washed, and incubated at a concentration of 10^6 per ml in Hepes-Krebs-Ringer (HKR) buffer buffer with 1 mg·ml^−1 BSA for 90 minutes at 37° C. in the presence of 40 pM [^125I]NGF in the absence and presence of excess unlabeled NGF, and in the absence and presence of R3 peptide. Aliquots of 100 μl were removed in replicates and mircocentrifuged at 10,000×g for 1 minute. Supernatants were removed, tips were cut from the microcentrifuge tube and counted in a gamma counter. Specific binding was defined as the difference between binding of the ligand in the absence and presence of unlabeled NGF, and fractional specific binding in the absence and presence of R3 peptide was compared. Studies of [^125I]NGF uptake into PC12 and PC12^nnr5 cells were carried out in the absence and presence of 10 μM R3 peptide and following a 24-hour exposure of PC12 cultures to 10 μM R3 peptide. Cells were eposed to 20 pM or 0.2 nM [^125I]NGF for periods of time up to 240 minutes (steady state) at 37° C. The cells were then briefly acid-washed as described by Bernd and Greene (1984), and aliquots were prepared for gamma counting as described. NGF was radioiodinated as described in Sutter et al. (1979b).

Assay [2] has as its system PC12^nnr5 cells. As to the kind of experiment: Acid phosphatase assay of cell survival, PC12nnr5 cells. In kind it is cell-based, rat. The note with it: PC12nnr5 (low-TrkA), serum-free conditions. The method, then: This is a colorimetric assay which measures the lysosomal enzyme acid phosphatase to determine cell number (Connolly et al., 1986) modified by Ueda et al. (1994) for use with cultured neuronal cells. Medium was removed gently from PC12 or PC12^nnr5 cells cultured in 96 well plates and well were washed once with 200 μl PBS. Then 100 μl of buffer containing 0.1M sodium acetate pH 5.5, 0.1% TRITON™ X-100, and 10 mM p-nitrophenyl phosphate (Sigma 104 phosphatase substrate) was added to each well. Plates were placed in a 37° C., 5% CO2 incubator for 3 hours. The reaction was stopped by the addition of 10 μl/well of 1N sodium hydroxide and the colour development measured at 405 nm using a microplate reader (Titertek). The first column on each plate contained no cells (buffer only) and was used as a blank. The relationship between cell number and enzyme activity was linear over the range 1000 to 15,000 cells.
To exclude the possibility that the effects of R3 on neurite growth in the experiments described above were indirect and mediated by an influence on cell survival, PC12 and PC12^nnr5 cells were exposed to serum free conditions in the absence and presences of NGF, and in the absence and presence of R3. […] Nor was there any difference in NGF-mediated survival whether R3 exposure occurred before or at the same time as NGF exposure. […]

For assay [3], the system named is PC12 cells. Briefly: Binding of [125I]NGF to PC12 cells. Further details: species or system rat. Particulars: co-incubated with [125I]NGF. The method, then: as §1
The subject of assay [4] is embryonic 19 day rat DRG neurons. As to the kind of experiment: NGF-mediated neurite growth by ED19 rat DRG neurons. In kind it is cell-based. The method, then: Dissociated cells enriched for sensory neurons from DRG of ED8 chick or ED19 rat were prepared as described in detail previously (Sutter et al., 1979a). ED19 rat DRG dissociates were not pre-plated pror to bioassay. Cells were seeded into wells of Terasaki plates previously treated with poly-D-lysine at 700-900 per well in supplemented Ham's F12 medium with 2.5% fetal calf serum and NGF at concentrations between 0.04 and 40 pM. The cells were incubated with the additives as described at 37° C., 5% CO2, and scored at various times for neurite growth by counting all cells on the lower horizontal surface of the wells, which is approximately 15% of the surface area of the top of the tapered wells.
A Leitz Diavert inverted microscope with phase optics was used to score neurite growth. For both PC12 cells and sensory neurons, a neurite was scored as such if its calibre from origin to terminal was approximately the same and the length was equal to or greater than 1.5 cell body diameters.

The results in this text go back to US6417159B1 (Queen's University at Kingston, priority 1996, dated 2002).

Take LDALLAALRRIQR [R3]: the “Rates of [125I]NGF uptake, in words” value in assay [1] is on record as “not influenced”. In addition, the “Influence on NGF-mediated cell survival, in words” value in assay [2] was “no influence on NGF-mediated survival”. Besides, in assay [3], the “Effect on [125I]NGF binding, in words” value is reported as “no effect on steady-state total or non-displaceable binding”. For the same sequence, the “Effect on NGF-mediated neurite growth, co-incubation, in words” value in assay [4] was “enhancing effect”.
